Experimental data from patent US20240132464A1, “HETEROCYCLIC COMPOUNDS AS E3 LIGASE INHIBITORS” (Accutar Biotechnology Inc., priority 2022, published 2024).

target: T1, GID4 (Uniprot ID: Q81VV7, residues 124-289) (Homo sapiens, UniProt Q8IVV7); experiment: GID4 competitive binding assay (AlphaScreen, GID4/degron peptide PGLW); conditions: 24 nM GID4, 48 nM biotinylated degron peptide PGLW, 4° C., read-out: IC50 (Inhibition of GID4/Degron binding by test compounds)
T1 construct: GID4 (Uniprot ID: Q81VV7, residues 124-289)
T1 sequence (Q8IVV7 124-289): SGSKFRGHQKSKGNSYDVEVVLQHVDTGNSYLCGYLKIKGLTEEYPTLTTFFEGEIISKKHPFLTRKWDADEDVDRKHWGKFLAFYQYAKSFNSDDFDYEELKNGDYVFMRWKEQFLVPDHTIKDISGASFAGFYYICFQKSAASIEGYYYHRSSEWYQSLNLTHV
Procedure, shortened: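 Displacement of biotin-tagged degron tetrapeptide PGLW (48 nM) from C-terminally 6His-tagged GID4 124-289 (24 nM) read by AlphaScreen proximity signal. Compound incubation 2 h, then beads 1 h, all at 4 °C, pH 7.5, 2% DMSO final; background-corrected inhibition fitted with variable slope for IC50.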

IC50, > 5 µM:
Nc1nc2c(c(N3CCCC(c4ccn[nH]4)C3)n1)CSCC2 (stereo not shown) [Compound 208, 4-(3-(1H-pyrazol-5-yl)piperidin-1-yl)-7,8-dihydro-5H-thiopyrano[4,3-d]pyrimidin-2-amine]
CC1CNCCN1c1cc(-c2ccnn2C)c2ccnc(-c3ccn[nH]3)c2n1 (stereo not shown) [Compound 363, 4-(1-methyl-1H-pyrazol-5-yl)-2-(2-methylpiperazin-1-yl)-8-(1H-pyrazol-5-yl)-1,7-naphthyridine]
CNc1cc(N2CCCC(c3nnc4ccccn34)C2)nc(N)n1 (stereo not shown) [Compound 180, 6-(3-([1,2,4]triazolo[4,3-a]pyridin-3-yl)piperidin-1-yl)-N4-methylpyrimidine-2,4-diamine]
CC(C)c1cc(N2CCCC(O)(c3cnc4ccccn34)C2)nc(N)n1 (stereo not shown) [Compound 243, 1-(2-amino-6-isopropylpyrimidin-4-yl)-3-(imidazo[1,2-a]pyridin-3-yl)piperidin-3-ol]
CC(C)c1cc(N2CCC(O)(c3ccccc3Br)C2)nc(N)n1 (stereo not shown) [Compound 231, 1-(2-amino-6-isopropylpyrimidin-4-yl)-3-(2-bromophenyl)pyrrolidin-3-ol]
Nc1cc(N2CCOC(c3cnc4ccccn34)C2)nc(N)n1 (single isomer, unassigned) [Compound 137, (S/R)-6-(2-(imidazo[1,2-a]pyridin-3-yl)morpholino)pyrimidine-2,4-diamine]
Nc1cc(N2CCOC(c3cnc4ccccn34)C2)nc(N)n1 (racemic) [Compound 136, (R/S)-6-(2-(imidazo[1,2-a]pyridin-3-yl)morpholino)pyrimidine-2,4-diamine]
Nc1nc2c(c(N3CCCC(c4cnc5ccccn45)C3)n1)CSC2 (stereo not shown) [Compound 186, 4-(3-(imidazo[1,2-a]pyridin-3-yl)piperidin-1-yl)-5,7-dihydrothieno[3,4-d]pyrimidin-2-amine]
CC(C)c1cc(N2CCC=C(c3ccccc3Br)C2)nc(N)n1 [Compound 230, 4-(5-(2-bromophenyl)-3,6-dihydropyridin-1(2H)-yl)-6-isopropylpyrimidin-2-amine]

IC50, < 0.5 µM:
CN(C)[C@H]1C[C@@H](NC(=O)c2csc(-c3cc(O)c4ncccc4c3)c2)C1 [Compound 264, N-(cis-3-(dimethylamino)cyclobutyl)-5-(8-hydroxyquinolin-6-yl)thiophene-3-carboxamide]
COC(=O)c1ccc(Br)c(C2CN(c3cc(N)nc(N)n3)CCN2)c1 (stereo not shown) [Compound 38, methyl 4-bromo-3-(4-(2,6-diaminopyrimidin-4-yl)piperazin-2-yl)benzoate]
CN(C)CCCNC(=O)c1cnc(-c2cc(O)c3ncccc3c2)nc1 [Compound 282, N-(3-(dimethylamino)propyl)-2-(8-hydroxyquinolin-6-yl)pyrimidine-5-carboxamide]
Nc1nccc2ccc(-c3ccc4[nH]nc(C(=O)NCCO)c4c3)cc12 [Compound 331, 5-(1-aminoisoquinolin-7-yl)-N-(2-hydroxyethyl)-1H-indazole-3-carboxamide]
CN(C)CCCNC(=O)c1ncc(-c2cc(O)c3ncccc3c2)s1 [Compound 272, N-(3-(dimethylamino)propyl)-5-(8-hydroxyquinolin-6-yl)thiazole-2-carboxamide]
CN(C)CCCNC(=O)c1c(Cl)cc(-c2cc(O)c3ncccc3c2)cc1Cl [Compound 318, 2,6-dichloro-N-(3-(dimethylamino)propyl)-4-(8-hydroxyquinolin-6-yl)benzamide]
CN(C)CCNC(=O)c1cc2cc(-c3ccc4ccnc(N)c4c3)ccc2cn1 [Compound 356, 1′-amino-N-(2-(dimethylamino)ethyl)-[6,7′-biisoquinoline]-3-carboxamide]
CC(C)c1nc(N)cc(N2CCCC(c3cnc4ccccn34)C2)n1 (single isomer, unassigned) [Compound 142, R or S-6-(3-(imidazo[1,2-a]pyridin-3-yl)piperidin-1-yl)-2-isopropylpyrimidin-4-amine]
CC(C)c1cc(N2CCNC(c3cc(N4CCNCC4)ccc3Br)C2)nc(N)n1 (stereo not shown) [Compound 41, 4-(3-(2-bromo-5-(piperazin-1-yl)phenyl)piperazin-1-yl)-6-isopropylpyrimidin-2-amine]
CC(C)c1cc(N2CCNC(c3cnc4ccccn34)C2)c2cc[nH]c2n1 (single isomer, unassigned) [Compound 372, (S/R)-3-(4-(6-isopropyl-1H-pyrrolo[2,3-b]pyridin-4-yl)piperazin-2-yl)imidazo[1,2-a]pyridine]
CNc1nc(N)cc(N2CCNC(c3ccccc3Br)C2)n1 (racemic) [Compound 114, (S/R)-6-(3-(2-bromophenyl)piperazin-1-yl)-N2-methylpyrimidine-2,4-diamine]
CC(C)c1cc(N2CCN(C)C(c3cnc4ccccn34)C2)nc(N)n1 (racemic) [Compound 106, (R/S)-4-(3-(imidazo[1,2-a]pyridin-3-yl)-4-methylpiperazin-1-yl)-6-isopropylpyrimidin-2-amine]
CN(C)CCCNC(=O)c1cc(Cl)c(-c2cc(O)c3ncccc3c2)cc1Cl [Compound 322, 2,5-dichloro-N-(3-(dimethylamino)propyl)-4-(8-hydroxyquinolin-6-yl)benzamide]
Nc1cc(N2CCOC(c3ccccc3C(F)(F)F)C2)nc(N)n1 (stereo not shown) [Compound 29, 6-(2-(2-(trifluoromethyl)phenyl)morpholino)pyrimidine-2,4-diamine]
Nc1nc(NC2CC2)cc(N2CCN[C@@H](c3ccccc3Br)C2)n1 (racemic) [Compound 122, (S/R)-6-(3-(2-bromophenyl)piperazin-1-yl)-N4-cyclopropylpyrimidine-2,4-diamine]
CC(C)c1cc(N2CCCC(c3cnn4ccccc34)C2)nc(N)n1 (stereo not shown) [Compound 240, 4-isopropyl-6-(3-(pyrazolo[1,5-a]pyridin-3-yl)piperidin-1-yl)pyrimidin-2-amine]

IC50, 0.5 to 5 µM:
CN(C)CCCNC(=O)c1n[nH]c2ccc(-c3ccc4ncnc(N)c4c3)cc12 [Compound 330, 5-(4-aminoquinazolin-6-yl)-N-(3-(dimethylamino)propyl)-1H-indazole-3-carboxamide]
CNc1cc(N2CCCC(c3csc4ccccc34)C2)nc(N)n1 (stereo not shown) [Compound 82, 6-(3-(benzo[b]thiophen-3-yl)piperidin-1-yl)-N4-methylpyrimidine-2,4-diamine]
O=C1NCCc2cc(-c3cccc(C(=O)N4CCCC4)c3)ccc21 [Compound 278, 6-(3-(pyrrolidine-1-carbonyl)phenyl)-3,4-dihydroisoquinolin-1(2H)-one]
Nc1nc(NC2CC2)cc(N2CCN(CCO)C(c3ccccc3Br)C2)n1 (single isomer, unassigned) [Compound 44, (R/S)-2-(4-(2-amino-6-(cyclopropylamino)pyrimidin-4-yl)-2-(2-bromophenyl)piperazin-1-yl)ethan-1-ol]
CN(C)CCCNC(=O)c1ccc(-c2cc(O)c3ncccc3c2)c(Cl)c1 [Compound 317, 3-chloro-N-(3-(dimethylamino)propyl)-4-(8-hydroxyquinolin-6-yl)benzamide]
Cc1c(-c2ccc(Br)c(C3CN(c4cc(C(C)C)nc(N)n4)CCN3)c2)cnn1C (single isomer, unassigned) [Compound 7, R or S-4-(3-(2-bromo-5-(1,5-dimethyl-1H-pyrazol-4-yl)phenyl)piperazin-1-yl)-6-isopropylpyrimidin-2-amine]
CN(C)CCCNC(=O)c1ccc2c(-c3ccc4ccnc(N)c4c3)c[nH]c2c1 [Compound 359, 3-(1-aminoisoquinolin-7-yl)-N-(3-(dimethylamino)propyl)-1H-indole-6-carboxamide]
CC(C)c1cc(N2CCCC(c3nn(C)c4ccccc34)C2)nc(N)n1 (stereo not shown) [Compound 232, 4-isopropyl-6-(3-(1-methyl-1H-indazol-3-yl)piperidin-1-yl)pyrimidin-2-amine]
CN(C)CCCNC(=O)c1ccc(-c2cc(O)c3ncc(=O)[nH]c3c2)cc1 [Compound 273, N-(3-(dimethylamino)propyl)-4-(8-hydroxy-3-oxo-3,4-dihydroquinoxalin-6-yl)benzamide]
CNc1cc(N2CCC[C@@H](c3ccccc3Br)C2)nc(NC)n1 (stereo in doubt) [Compound 84, (S/R)-6-(3-(2-bromophenyl)piperidin-1-yl)-N2,N4-dimethylpyrimidine-2,4-diamine]
CNc1cc(N2CCN(C)C(c3ccccc3)C2)nc(N)n1 (stereo not shown) [Compound 110, N4-methyl-6-(4-methyl-3-phenylpiperazin-1-yl)pyrimidine-2,4-diamine]
Cc1cc(-c2cc(O)c3ncccc3c2)ccc1C(=O)NCCCN(C)C [Compound 311, N-(3-(dimethylamino)propyl)-4-(8-hydroxyquinolin-6-yl)-2-methylbenzamide]
CN1CCC(NC(=O)c2cccc(-c3ccc4ccnc(N)c4c3)c2)CC1 [Compound 345, 3-(1-aminoisoquinolin-7-yl)-N-(1-methylpiperidin-4-yl)benzamide]
CNc1cc(N2CCC[C@H](c3ccccc3Br)C2)nc(NC)n1 (stereo in doubt) [Compound 83, (R/S)-6-(3-(2-bromophenyl)piperidin-1-yl)-N2,N4-dimethylpyrimidine-2,4-diamine]
CNc1nc(N)cc(N2CCCC(c3ccccc3Br)C2)n1 (stereo not shown) [Compound 85, 6-(3-(2-bromophenyl)piperidin-1-yl)-N^2-methylpyrimidine-2,4-diamine]
